How the values were obtained:
Format in all cases: cell-based, human
[1] = tested on: SMN2 mRNA; experiment: RT-qPCR splicing assay, SMN2 canonical junction (CJ) mRNA; conditions: Homo sapiens; Table 5 panel; canonical junction qPCR; compound concentration having 50% response in CJ decrease; read-out: SMN2 IC50 (decrease in CJ mRNA levels)
Method in brief: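 Cells are plated (A673 allowed 24 h to adhere), dosed with an 11-point 3-fold series topping at 10 uM final, and incubated 24 h at 37 °C. Lysis is followed by cDNA synthesis and qPCR of the CJ transcript, normalized to a housekeeping gene.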

[2] = tested on: Target C; experiment: HiBiT protein abundance assay, Target C (Promega Nano-Glo HiBiT Lytic Detection System, knock-in K562 cell line); conditions: Homo sapiens, K562, 24 h, HiBiT K562 cell line, 24 hours, top dose 10 μM; read-out: Effect on protein abundance, Target C (IC50 category)
Method in brief: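 HiBiT knock-in K562 cells (10,000/well) were treated for 24 h at 37 °C with a 10-point 3-fold dilution series, top final concentration 10 μM, DMSO ≤0.25%. Lytic HiBiT luminescence was read, normalized to unmodified K562 and DMSO-treated controls, and IC50 was interpolated from a four-parameter logistic fit.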

[3] = tested on: HTT; experiment: HiBiT protein abundance assay, HTT HiBiT K562 cell line; conditions: HiBiT K562 cell line, 24 hours, top dose 10 μM; read-out: Effect on protein abundance, HTT (IC50 category)
Method in brief: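 Endogenous targets in K562 knock-in lines carried a HiBiT tag and were treated for 24 h at 37 °C with 10-point 3-fold dilutions (top 10 μM final, DMSO ≤0.25%). Abundance was read as lytic Nano-Glo HiBiT luminescence. IC50 came from a four-parameter logistic fit of normalized response.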

Row | Structure (SMILES) | IC50 [1] [nM] | IC50 [2] [nM] | IC50 [3] [nM]
1 | Cc1cn2cc(-c3cc(F)c4c(=O)n(C5CCOC5)cnc4c3)cc(C#N)c2n1 (stereo in doubt) [Compound 500, (S)-6-(5-fluoro-4-oxo-3-(tetrahydrofuran-3-yl)-3,4-dihydroquinazolin-7-yl)-2-methylimidazo[1,2-a]pyridine-8-carbonitrile] | 100 to 1000 | 100 to 1000 | 100 to 1000
2 | Cc1cn2nc(-c3cc(C)c4c(=O)n(C5CCNC6(CC6)C5)ccc4c3)cc(C)c2n1 (stereo in doubt) [Compound 398, (R)-6-(2,8-dimethylimidazo[1,2-b]pyridazin-6-yl)-8-methyl-2-(4-azaspiro[2.5]octan-7-yl)isoquinolin-1(2H)-one] | < 100 | < 100 | < 100
3 | Cc1cn2nc(-c3ccc4c(=O)n(C5CCCNC5)ccc4c3)cc(C)c2n1 (stereo in doubt) [Compound 410, 6-{2,8-dimethylimidazo[1,2-b]pyridazin-6-yl}-2-[(3S)-piperidin-3-yl]isoquinolin-1-one] | < 100 | 1000 to 10000 | 100 to 1000
4 | Cc1c(O)c(-c2cc(F)c3c(=O)n(C4CCNC5(CC5)C4)ccc3c2)cc2cn(C)nc12 (stereo not drawn) [Compound 419, 2-{4-azaspiro[2.5]octan-7-yl}-8-fluoro-6-(6-hydroxy-2,7-dimethylindazol-5-yl)isoquinolin-1-one] | 100 to 1000 | > 10000 | > 10000
5 | Cc1cn2nc(-c3cc(F)c4c(=O)n([C@H]5CCNC6(CC6)C5)ncc4c3)cc(C)c2n1 [Compound 447] | < 100 | < 100 | < 100
6 | Cn1cc2cc(-c3cc(F)c4c(=O)n(C5CCNC6(CC6)C5)ccc4c3)cc(F)c2n1 (stereo not drawn) [Compound 412] | < 100 | < 100 | < 100
7 | Cc1cc(-c2ccc3c(=O)n(C4CCNCC4)cnc3c2)cc2cn(C)nc12 [Compound 174] | < 100 | 100 to 1000 | 100 to 1000
8 | Cc1cc(-c2ccc3c(=O)n(C4CCN(C)CC4)cnc3n2)cc2cn(C)nc12 [Compound 173] | 1000 to 10000 | > 10000 | > 10000
9 | Cc1cn2nc(-c3cc(F)c4c(=O)n(C5CCN(C)CC5)ccc4c3)cc(C)c2n1 [Compound 400, 6-(2,8-dimethylimidazo[1,2-b]pyridazin-6-yl)-8-fluoro-2-(1-methylpiperidin-4-yl)isoquinolin-1(2H)-one] | < 100 | < 100 | < 100
10 | Cc1cn2nc(-c3cc(O)c4c(=O)n(C5CCNC5)ccc4c3)cc(C)c2n1 (stereo not drawn) [Compound 432, 6-{2,8-dimethylimidazo[1,2-b]pyridazin-6-yl}-8-hydroxy-2-(pyrrolidin-3-yl)isoquinolin-1-one] | < 100 | 1000 to 10000 | 1000 to 10000
11 | Cc1cn2cc(-c3cc(F)c4c(=O)n([C@@H]5CCNC5)ccc4c3)cc(F)c2n1 (single isomer, unassigned) [Compound 395] | < 100 | 1000 to 10000 | 100 to 1000
12 | Cc1cn2cc(-c3cc(F)c4c(=O)n(C5CCNCC5)ccc4c3)cc(C#N)c2n1 [Compound 383, 6-[8-fluoro-1-oxo-2-(piperidin-4-yl)isoquinolin-6-yl]-2-methylimidazo[1,2-a]pyridine-8-carbonitrile] | < 100 | 100 to 1000 | 100 to 1000
13 | Cc1cn2nc(-c3ccc4c(=O)n(C5CCNCC5)cc(C)c4c3)cc(C)c2n1 [Compound 381, 6-{2,8-dimethylimidazo[1,2-b]pyridazin-6-yl}-4-methyl-2-(piperidin-4-yl)isoquinolin-1-one] | < 100 | 100 to 1000 | < 100
14 | Cc1cn2cc(-c3ccc4c(=O)n([C@@H]5CCNC5)cc(C)c4c3)cc(F)c2n1 [Compound 452, (R)-6-(8-fluoro-2-methylimidazo[1,2-a]pyridin-6-yl)-4-methyl-2-(pyrrolidin-3-yl)isoquinolin-1(2H)-one] | < 100 | > 10000 | > 10000
15 | Cc1cn2nc(-c3ccc4c(=O)n([C@@H]5CCNC6(CC6)C5)ncc4c3)cc(C)c2n1 (stereo in doubt) [Compound 368, 2-[(7R)-4-azaspiro[2.5]octan-7-yl]-6-{2,8-dimethylimidazo[1,2-b]pyridazin-6-yl}phthalazin-1-one] | < 100 | < 100 | < 100
16 | COc1cc2c(=O)n(C3CCNCC3)ccc2cc1-c1cc(C)c2nc(C)cn2n1 [Compound 449, 6-{2,8-dimethylimidazo[1,2-b]pyridazin-6-yl}-7-methoxy-2-(piperidin-4-yl)isoquinolin-1-one] | > 10000 | > 10000 | > 10000
17 | Cc1cn2cc(-c3ccc4c(=O)n(C5CCNCC5)cc(C)c4c3)cc(F)c2n1 [Compound 440, 6-{8-fluoro-2-methylimidazo[1,2-a]pyridin-6-yl}-4-methyl-2-(piperidin-4-yl)isoquinolin-1-one] | < 100 | 100 to 1000 | 100 to 1000
18 | Cc1cn2cc(-c3cc(F)c4c(=O)n([C@H]5CCNC5)ccc4c3)cc(F)c2n1 (single isomer, unassigned) [Compound 396] | < 100 | 100 to 1000 | 100 to 1000
19 | Cc1cn2cc(-c3cc(F)c4c(=O)n(C5CCOC5)cnc4c3)cc(C#N)c2n1 (stereo not drawn) [Compound 366, 6-[5-fluoro-4-oxo-3-(oxolan-3-yl)quinazolin-7-yl]-2-methylimidazo[1,2-a]pyridine-8-carbonitrile] | 1000 to 10000 | 1000 to 10000 | 1000 to 10000
20 | Cc1cn2cc(-c3cc(F)c4c(=O)n(C5CCNC6(CC6)C5)ccc4c3)c(O)c(C)c2n1 (stereo not drawn) [Compound 421, 2-{4-azaspiro[2.5]octan-7-yl}-8-fluoro-6-{7-hydroxy-2,8-dimethylimidazo[1,2-a]pyridin-6-yl}isoquinolin-1-one] | > 10000 | > 10000 | > 10000
21 | Cc1cn2cc(-c3ccc4c(=O)n(C5CCNC5)cc(C)c4c3)cc(F)c2n1 (stereo not drawn) [Compound 441, 6-{8-fluoro-2-methylimidazo[1,2-a]pyridin-6-yl}-4-methyl-2-(pyrrolidin-3-yl)isoquinolin-1-one] | 100 to 1000 | > 10000 | 1000 to 10000

Reference: patent US20250332173A1, “COMPOUNDS AND METHODS FOR MODULATING NUCLEIC ACID SPLICING” (REMIX THERAPEUTICS INC., priority 2021, published 2025)
